As usually defined, the EC50 is the midpoint of the concentration-response curve. A high value points to weaker potency. A word on the chromatographic logD: it is lipophilicity estimated from chromatographic retention. Read a high chromatographic logD as a more lipophilic compound.

Series [1] deals with T1, full-length beta-Catenin (Uniprot ID P35222) (Homo sapiens, UniProt P35222).
T1 construct: 10 nM full-length beta-Catenin (Uniprot ID P35222)
T1 sequence (P35222 1-781): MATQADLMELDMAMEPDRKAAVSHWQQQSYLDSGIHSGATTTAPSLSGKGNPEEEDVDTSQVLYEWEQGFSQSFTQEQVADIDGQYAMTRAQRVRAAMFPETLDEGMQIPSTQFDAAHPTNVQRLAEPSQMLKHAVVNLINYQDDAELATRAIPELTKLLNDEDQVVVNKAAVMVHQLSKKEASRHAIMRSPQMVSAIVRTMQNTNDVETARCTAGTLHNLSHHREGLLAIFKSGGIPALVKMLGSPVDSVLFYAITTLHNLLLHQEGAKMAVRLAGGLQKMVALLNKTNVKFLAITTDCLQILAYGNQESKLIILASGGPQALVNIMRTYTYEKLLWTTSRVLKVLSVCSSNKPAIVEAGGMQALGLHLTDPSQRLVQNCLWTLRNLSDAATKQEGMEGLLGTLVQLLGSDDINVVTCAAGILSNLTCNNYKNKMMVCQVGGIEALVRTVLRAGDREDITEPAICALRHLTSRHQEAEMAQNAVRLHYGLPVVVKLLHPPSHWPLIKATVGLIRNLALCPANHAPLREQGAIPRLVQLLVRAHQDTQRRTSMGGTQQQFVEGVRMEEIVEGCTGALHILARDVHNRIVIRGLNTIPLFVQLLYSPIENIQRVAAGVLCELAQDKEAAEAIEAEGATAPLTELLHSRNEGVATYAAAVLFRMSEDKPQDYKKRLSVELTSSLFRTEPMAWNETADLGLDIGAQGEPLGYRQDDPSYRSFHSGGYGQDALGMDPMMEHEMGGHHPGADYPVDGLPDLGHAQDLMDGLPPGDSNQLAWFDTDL
In words: Fluorescence polarization IC50 (beta-catenin / 5FAM-TCF4 10-53 competition). The class given is binding.

Series [2] has as its target T2, full-length B-Catenin (Uniprot ID P35222) (Homo sapiens, UniProt P35222).
T2 construct: 65 nM full-length B-Catenin (Uniprot ID P35222)
T2 sequence (P35222 1-781): T1 sequence (P35222 1-781)
As to the kind of experiment: Alphascreen binding assay (beta-catenin / biotin-TCF4 10-53). The procedure, abridged:
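AlphaScreen (Ni-chelate beads) competition in 50 mM Tris pH 8.0, 250 mM NaCl with detergents and 0.1% BSA. Peptide titrated 10 uM–5 nM against 65 nM human β-catenin bound to 10 nM biotinylated TCF4 10-53, 15 min then 60 min with beads, both at 20 °C; 1:1 Hill-slope fit.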
(In general: In Alpha technology, singlet oxygen from a donor bead excites a nearby acceptor bead.)

Series [3] in a line: CHI Log D procedure. It is filed as physicochemical. The note with it: for CHI Log D: pH 7.4; for chromatographic logD: pH 7.4, CHI Log D.
[4] abbreviates: Table E2-1, read-out: beta-Catenin FP IC50.
[5] abbreviates: fluorescence polarization, beta-catenin, read-out: FP EC50.

Read-outs that look alike come from different tables or passages of the source.

Consider `CC[C@H](C)[C@H](NC(=O)[C@H](CC(=O)O)NC(=O)[C@H](C)NC(C)=O)C(=O)N[C@]1(C)CCN(C)C(=O)OCC=CCCCCC[C@@](C)(C(=O)N[C@@H](Cc2ccccc2)C(=O)N[C@@H](Cc2c[nH]c3ccccc23)C(=O)N[C@@H](Cc2c[nH]cn2)C(N)=O)NC(=O)[C@H](CCC(N)=O)NC(=O)[C@H](Cc2ccccc2)NC(=O)[C@H](C)NC(=O)[C@H](C)NC(=O)[C@H](CC(=O)O)NC(=O)[C@H](CC(=O)O)NC1=O` [I-64, Ac-Ala-Asp-Ile-RdN-Asp-Asp-Ala-Ala-Phe-Gln-S7-Phe-Trp-His-NH2], for which the IC50 in series [1] (setting [4]) and in series [1] (setting [5]) was 4250 nM throughout. In series [2], it took 650 nM to reach a half-maximal effect (EC50). The “CHI Log D” value in series [3] amounted to 1.222.
Take `CC[C@H](C)[C@H](NC(=O)[C@H](CC(=O)O)NC(=O)[C@H](C)NC(C)=O)C(=O)N[C@]1(C)CCN(C)C(=O)OCC=CCCCCC[C@@](C)(C(=O)N[C@@H](Cc2ccccc2)C(=O)N[C@@H](Cc2c[nH]c3ccccc23)C(=O)N[C@@H](Cc2c[nH]cn2)C(N)=O)NC(=O)[C@H](CCC(N)=O)NC(=O)[C@H](Cc2ccccc2)NC(=O)[C@H](C)NC(=O)[C@H](C)NC(=O)[C@H](CCC(=O)O)NC(=O)[C@H](CC(=O)O)NC1=O` [I-66, Ac-Ala-Asp-Ile-RdN-Asp-Glu-Ala-Ala-Phe-Gln-S7-Phe-Trp-His-NH2]: the IC50 in series [1] (setting [4]) and in series [1] (setting [5]) was 1090 nM each time. Besides, the EC50 in series [2] turned out to be 175 nM. Further, in series [3], the “CHI Log D” value was determined as 1.259.
For the compound `CC(=O)N1CCC[C@]12CC=CCCCC1(CCCC=CCCCCCC[C@@](C)(C(=O)N[C@@H](Cc3ccccc3)C(=O)N[C@@H](Cc3c[nH]c4ccccc34)C(=O)N[C@@H](CCC(N)=O)C(N)=O)NC(=O)[C@H](C(C)C)NC(=O)[C@H](Cc3ccccc3)NC(=O)[C@H](C)NC(=O)[C@H](C)NC(=O)[C@H](CCC(N)=O)NC(=O)[C@H](CC(=O)O)NC1=O)NC(=O)[C@H](C)NC(=O)[C@H](CC(=O)O)NC2=O` (stereo partly drawn) [I-127, Ac-PL3-Asp-Ala-B5-Asp-Gln-Ala-Ala-Phe-Val-S8-Phe-Trp-Gln-NH2], the IC50 in series [1] (setting [4]) and in series [1] (setting [5]) was 4840 nM each time. This compound also showed an EC50 in series [2] of 552 nM. Further, the “CHI Log D” value in series [3] is recorded as 2.245.
For `CC(=O)N1CCC[C@]12CC=CCCCC1(CCCC=CCCCCCC[C@@](C)(C(=O)N[C@@H](Cc3ccccc3)C(=O)N[C@@H](Cc3c[nH]c4ccccc34)C(=O)N[C@@H](CCC(N)=O)C(N)=O)NC(=O)[C@H](C(C)C)NC(=O)[C@H](Cc3ccccc3)NC(=O)[C@H](C)NC(=O)[C@H](C)NC(=O)[C@H](CCCC(=O)O)NC(=O)[C@H](CC(=O)O)NC1=O)NC(=O)[C@H](C)NC(=O)[C@H](CC(=O)O)NC2=O` (stereo partly drawn) [I-129, Ac-PL3-Asp-Ala-B5-Asp-Aad-Ala-Ala-Phe-Val-S8-Phe-Trp-Gln-NH2], the IC50 in series [1] (setting [4]) stood at 1980 nM. This compound also returned an EC50 in series [2] of 83 nM. This compound also had a chromatographic logD in series [3] of 2.11.
Regarding `CC(=O)N1CCC[C@]12CC=CCCCC1(CCCC=CCCCCCC[C@@](C)(C(=O)N[C@@H](Cc3ccccc3)C(=O)N[C@@H](Cc3c[nH]c4ccccc34)C(=O)NC(C)(C)C(N)=O)NC(=O)[C@H](C(C)C)NC(=O)[C@H](Cc3ccccc3)NC(=O)[C@H](C)NC(=O)[C@H](C)NC(=O)[C@H](CCC(=O)O)NC(=O)[C@H](CC(=O)O)NC1=O)NC(=O)[C@H](C)NC(=O)[C@H](CC(=O)O)NC2=O` (stereo partly drawn) [I-134, Ac-PL3-Asp-Ala-B5-Asp-Glu-Ala-Ala-Phe-Val-S8-Phe-Trp-Aib-NH2], the IC50 in series [1] (setting [4]) and in series [1] (setting [5]) was 2700 nM each time. In series [2], this compound registered an EC50 of 99 nM. Besides, the “CHI Log D” value in series [3] turned out to be 2.426.
As to `CC(=O)N1CCC[C@]12CC=CCCCC1(CCCC=CCCCCCC[C@@](C)(C(=O)N[C@@H](Cc3ccccc3)C(=O)N[C@@H](Cc3csc4ccccc34)C(=O)N[C@@H](CCC(N)=O)C(N)=O)NC(=O)[C@H](C(C)C)NC(=O)[C@H](Cc3ccccc3)NC(=O)[C@H](C)NC(=O)[C@H](C)NC(=O)[C@H](CCC(=O)O)NC(=O)[C@H](CC(=O)O)NC1=O)NC(=O)[C@H](C)NC(=O)[C@H](CC(=O)O)NC2=O` (stereo partly drawn) [I-144, Ac-PL3-Asp-Ala-B5-Asp-Glu-Ala-Ala-Phe-Val-S8-Phe-BztA-Gln-NH2], the IC50 in series [1] (setting [4]) worked out at 147 nM. A half-maximal response in series [2] (EC50) required 66 nM. Further, the chromatographic logD in series [3] came to 2.12.
The like results for `CC[C@H](C)[C@H](NC(=O)[C@H](CC(=O)O)NC(=O)[C@H](C)NC(C)=O)C(=O)N[C@]1(C)CCN(C)C(=O)OCC=CCCCCC[C@@](C)(C(=O)N[C@@H](Cc2ccccc2)C(=O)N[C@@H](Cc2c[nH]c3ccccc23)C(N)=O)NC(=O)[C@H](CCC(N)=O)NC(=O)[C@H](Cc2ccccc2)NC(=O)[C@H](C)NC(=O)[C@H](C)NC(=O)[C@H](CCC(=O)O)NC(=O)[C@H](CC(=O)O)NC1=O` [I-148, Ac-Ala-Asp-Ile-RdN-Asp-Glu-Ala-Ala-Phe-Gln-S7-Phe-Trp-NH2] were, in that order, 2770 nM, 398 nM and 1.36.
For `CC[C@H](C)[C@H](NC(=O)[C@H](CC(=O)O)NC(=O)[C@H](C)NC(C)=O)C(=O)N[C@]1(C)CCN(C)C(=O)OCC=CCCCCC[C@@](C)(C(=O)N[C@@H](Cc2ccccc2)C(=O)N[C@@H](Cc2c[nH]c3ccccc23)C(=O)N[C@@H](C)C(N)=O)NC(=O)[C@H](CCC(N)=O)NC(=O)[C@H](Cc2ccccc2)NC(=O)[C@H](C)NC(=O)[C@H](C)NC(=O)[C@H](CCC(=O)O)NC(=O)[C@H](CC(=O)O)NC1=O` [I-153, Ac-Ala-Asp-Ile-RdN-Asp-Glu-Ala-Ala-Phe-Gln-S7-Phe-Trp-Ala-NH2] the same measures were 2140 nM, 153 nM and 1.32.
Turning to `CC[C@H](C)[C@@H]1NC(=O)[C@H](CC(=O)O)NC(=O)[C@]2(CC=CCCCC3(CCCC=CCCCCCC[C@@](C)(C(=O)N[C@@H](Cc4ccccc4)C(=O)N[C@@H](Cc4c[nH]c5ccccc45)C(=O)N[C@@H](Cc4c[nH]cn4)C(N)=O)NC(=O)[C@H](CCC(N)=O)NC(=O)[C@H](Cc4ccccc4)NC(=O)[C@H](C)NC(=O)[C@H](C)NC(=O)[C@H](CC(=O)O)NC(=O)[C@H](CC(=O)O)NC3=O)NC1=O)CCCN2C(C)=O` (stereo partly drawn) [I-174, Ac-PL3-Asp-Ile-B5-Asp-Asp-Ala-Ala-Phe-Gln-S8-Phe-Trp-His-NH2], the IC50 in series [1] (setting [4]) and in series [1] (setting [5]) was 1760 nM in each case. Moreover, in series [2], the EC50 worked out at 116 nM. Also, the “CHI Log D” value in series [3] worked out at 2.242.
`CC(=O)N1CCC[C@]12CC=CCCCC1(CCCC=CCCCCCC[C@@](C)(C(=O)N[C@@H](Cc3ccccc3)C(=O)N[C@@H](Cc3c[nH]c4ccccc34)C(=O)N[C@@H](CCC(N)=O)C(N)=O)NC(=O)[C@H](C(C)C)NC(=O)[C@H](Cc3ccccc3)NC(=O)[C@H](C)NC(=O)[C@H](C)NC(=O)[C@H](Cc3ccc(N)cc3)NC(=O)[C@H](CC(=O)O)NC1=O)NC(=O)[C@H](C)NC(=O)[C@H](CC(=O)O)NC2=O` (stereo partly drawn) [I-324, Ac-PL3-Asp-Ala-B5-Asp-4AmPhe-Ala-Ala-Phe-Val-S8-Phe-Trp-Gln-NH2] showed a concentration for a half-maximal effect (EC50) in series [2] of 1750 nM. For the same compound, the chromatographic logD in series [3] was 2.6.
